Reference: US20020094522A1, “Means and methods for monitoring non-nucleoside reverse transcriptase inhibitor antiretroviral therapy and guiding therapeutic decisions in the treatment of HIV/AIDS” (priority 2000, published 2002)

Tests used:
Assay type in all cases: cell-based, HIV-1
[1] = test system: RTV-652 (patient sample 98-652); settings: values <1 = increased susceptibility
From the text: The resistance test vectors containing a functional luciferase gene cassette were constructed and host cells were transfected with the resistance test vector DNA. The resistant test vectors contained patient-derived reverse transcriptase and protease sequences that were either susceptible or resistant to the antiretroviral agents, such as nucleoside reverse transcriptase inhibitors, non-nucleoside reverse transcriptase inhibitors and protease inhibitors. The resistance test vector viral particles produced by transfecting the resistance test vector DNA into host cells, either in the presence or absence of protease inhibitors, were used to infect target host cells grown either in the absence of NRTI or NNRTI or in the presence of increasing concentrations of the drug. […] The IC50 values were determined by plotting percent drug inhibition vs. log10 drug concentration.
Host cells were seeded in 10-cm-diameter dishes and were transfected several days after plating with resistance test vector plasmid DNA and the envelope expression vector. […] HIV capsid protein (p24) levels in the harvested cell culture media were determined by an EIA method as described by the manufacturer (SIAC; Frederick, Md.). […] The inhibitory effect of the drug was determined using the following equation: […]
An IC50 was determined for the resistance test vector pool for each drug tested.

[2] = test system: RTV-757 (patient sample 98-757); test: Phenotypic susceptibility assay, RTV-757; settings: RTV-757, same patient after additional 8 weeks of treatment
Protocol: (§1) Transfections were performed using a calcium-phosphate precipitation procedure. […] Cell lysates were assayed for luciferase activity (FIG. 3).
(§2) The drug inhibition curves are shown in (FIG. 3).
A resistance test vector was constructed as described in Example 1 from a patient sample designated 98-1033. […] Isolation of viral RNA and RT/PCR was used to generate a patient derived segment that comprised viral sequences coding for all of PR and aa 1-313 of RT. The PDS was inserted into an indicator gene viral vector to generate resistance test vectors designated RTV-1033 and RTV-757. RTV-1033 and RTV-757 were then tested in a phenotypic assay to determine accurately and quantitatively the level of susceptibility to a panel of anti-retroviral drugs. […] An IC50 was determined for the resistance test vector pool for each drug tested. The pattern of susceptibility to all of the drugs tested was examined and compared to known patterns of susceptibility.

[3] = test system: RTV-300 (patient sample 97-300); test: Phenotypic susceptibility assay, RTV-300; settings: RTV-300, patient-derived pool
Protocol: as §1, §2
A resistance test vector was constructed as described in Example 1 from a patient sample designated 97-300. This patient had been previously treated with d4T and 3TC (NRTIs), indinavir (a PRI) and efavirenz (an NNRTI). Isolation of viral RNA and RT/PCR was used to generate a patient derived segment that comprised viral sequences coding for all of PR and aa 1-313 of RT. The PDS was inserted into an indicator gene viral vector to generate a resistance test vector designated RTV-300. RTV-300 was then tested in a phenotypic assay to determine accurately and quantitatively the level of susceptibility to a panel of anti-retroviral drugs. […] An IC50 was determined for the resistance test vector pool for each drug tested. The pattern of susceptibility to all of the drug tested was examined and compared to known patterns of susceptibility.

[4] = test system: RTV-644 (patient sample 97-644 / 98-644); test: Phenotypic susceptibility assay, RTV-644; settings: for susceptibility/resistance compared to reference virus: RTV-644, Example 5; for fold decrease in susceptibility (IC50): RTV-644, patient-derived pool
From the text: The resistance test vectors containing a functional luciferase gene cassette were constructed and host cells were transfected with the resistance test vector DNA. The resistant test vectors contained patient-derived reverse transcriptase and protease sequences that were either susceptible or resistant to the antiretroviral agents, such as nucleoside reverse transcriptase inhibitors, non-nucleoside reverse transcriptase inhibitors and protease inhibitors. The resistance test vector viral particles produced by transfecting the resistance test vector DNA into host cells, either in the presence or absence of protease inhibitors, were used to infect target host cells grown either in the absence of NRTI or NNRTI or in the presence of increasing concentrations of the drug. The amount of luciferase activity produced in infected target host cells in the presence of drug was compared to the amount of luciferase produced in infected target host cells in the absence of drug. Drug resistance was measured as the amount of drug required to inhibit by 50% the luciferase activity detected in the absence of drug (inhibitory concentration 50%, IC50). The IC50 values were determined by plotting percent drug inhibition vs. log10 drug concentration.
Host cells were seeded in 10-cm-diameter dishes and were transfected several days after plating with resistance test vector plasmid DNA and the envelope expression vector. Transfections were performed using a calcium-phosphate precipitation procedure. The cell culture media containing the DNA precipitate was replaced with fresh medium, from one to 24 hours, after transfection. Cell culture media containing resistance test vector viral particles was harvested one to four days after transfection and was passed through a […] filter before being stored at −80° C. HIV capsid protein (p24) levels in the harvested cell culture media were determined by an EIA method as described by the manufacturer (SIAC; Frederick, Md.). Before infection, target cells (293 and 293/T) were plated in cell culture media. Control infections were performed using cell culture media from mock transfections (no DNA) or transfections containing the resistance test vector plasmid DNA without the envelope expression plasmid. One to three or more days after infection the media was removed and cell lysis buffer (Promega) was added to each well. […] The inhibitory effect of the drug was determined using the following equation: […]
Isolation of viral RNA and RT/PCR was used to generate a patient derived segment that comprised viral sequences coding for all of PR and amino acids 1-313 of RT. […] An IC50 was determined for each drug tested. […]

[5] = test system: RTV-964 (patient sample 98-964); test: Phenotypic susceptibility assay, RTV-964; settings: RTV-964, patient-derived pool
Protocol: as §1, §2
A resistance test vector was constructed as described in Example 1 from a patient sample designated 98-964. […] Isolation of viral RNA and RT/PCR was used to generate a patient derived segment that comprised viral sequence coding for all of PR and aa 1-313 of RT. The PDS was inserted into an indicator gene viral vector to generate a resistance test vector designated RTV-964. RTV-964 was then tested in a phenotypic assay to determine accurately and quantitatively the level of susceptibility to a panel of anti-retroviral drugs. […] An IC50 was determined for the resistance test vector pool for each drug tested. The pattern of susceptibility to all of the drugs tested was examined and compared to known patterns of susceptibility.

[6] = test system: RTVs containing P236L plus K103N, Y181C or both (K103N+Y181C); test: Phenotypic susceptibility assay, P236L added to K103N, Y181C or both; settings: P236L with K103N
Protocol: as §1, §2
Resistance test vectors were constructed containing the P236L mutation alone and in combination with other known drug resistance mutations (K103N, Y181C) that are known to modulate the susceptibility of HIV-1 to NNRTIs. […] The P236L mutation was also introduced into a RTV containing mutations at K103N, Y181C or both (K103N+Y181C).

Row | SMILES | fold change in susceptibility (IC50) [1] | fold decrease in susceptibility (IC50) [2] | fold decrease in susceptibility (IC50) [3] | susceptibility/resistance compared to reference virus [4] | fold decrease in susceptibility (IC50) [4] | fold decrease in susceptibility (IC50) [5] | change in susceptibility compared to the corresponding RTV lacking P236L [6]
1 | CC(C)Nc1cccnc1N1CCN(C(=O)c2cc3cc(NS(C)(=O)=O)ccc3[nH]2)CC1 [delavirdine] | 0.97 fold | 10 fold | 25 fold | little or no resistance to delavirdine | 2.5 fold | 10 fold | less susceptible (more resistant) to delavirdine if the P236L mutation was present
2 | Cc1ccnc2c1NC(=O)c1cccnc1N2C1CC1 [nevirapine] | 5 fold | greater than 800 fold | greater than 800 fold | resistant to nevirapine | 600 fold | 750 fold | did not significantly alter nevirapine susceptibility
